Test results from publication PMC4319572 (Structure (London, England : 1993), 2015).

Tests used:
[1] = biological target: T1, Rgd1p F-BAR domain (residues 1-324) (Saccharomyces cerevisiae, UniProt P38339); assay: competition off PtdIns; type: binding; conditions: membranes with 10% (mole/mole) PtdIns(4,5)P2; competitive
T1 sequence (P38339 1-324): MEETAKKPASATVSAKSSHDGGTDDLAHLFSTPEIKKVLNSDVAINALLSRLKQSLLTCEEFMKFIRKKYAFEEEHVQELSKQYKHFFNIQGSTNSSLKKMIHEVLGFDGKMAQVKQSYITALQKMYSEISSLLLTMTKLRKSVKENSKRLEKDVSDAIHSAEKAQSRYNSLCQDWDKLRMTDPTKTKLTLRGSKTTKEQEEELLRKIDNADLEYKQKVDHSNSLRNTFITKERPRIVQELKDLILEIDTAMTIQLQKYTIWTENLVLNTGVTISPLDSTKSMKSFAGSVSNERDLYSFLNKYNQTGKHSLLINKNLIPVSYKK

[2] = biological target: T2, Rgd1p F-BAR domain (residues 1-324) (Saccharomyces cerevisiae, UniProt P38339, K149E/K153E); assay: surface plasmon resonance; type: binding; conditions: 30 μM protein over 10% (mole/mole) PtdIns(4,5)P2 in DOPC
T2 sequence (P38339 1-324 K149E/K153E): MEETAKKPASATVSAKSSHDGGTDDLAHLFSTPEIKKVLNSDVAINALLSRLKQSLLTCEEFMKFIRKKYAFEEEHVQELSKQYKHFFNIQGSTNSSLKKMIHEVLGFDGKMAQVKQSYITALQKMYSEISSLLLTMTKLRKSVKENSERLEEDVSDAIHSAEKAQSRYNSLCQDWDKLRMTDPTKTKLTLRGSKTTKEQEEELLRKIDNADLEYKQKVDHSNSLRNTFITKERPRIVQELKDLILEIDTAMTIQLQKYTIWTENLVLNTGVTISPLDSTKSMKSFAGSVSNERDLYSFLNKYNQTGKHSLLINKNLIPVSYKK

[3] = biological target: T3, Rgd1p F-BAR domain (residues 1-324) (Saccharomyces cerevisiae, UniProt P38339, R141D); assay: surface plasmon resonance; type: binding; conditions: 30 μM protein over 10% (mole/mole) PtdIns(4,5)P2 in DOPC
T3 sequence (P38339 1-324 R141D): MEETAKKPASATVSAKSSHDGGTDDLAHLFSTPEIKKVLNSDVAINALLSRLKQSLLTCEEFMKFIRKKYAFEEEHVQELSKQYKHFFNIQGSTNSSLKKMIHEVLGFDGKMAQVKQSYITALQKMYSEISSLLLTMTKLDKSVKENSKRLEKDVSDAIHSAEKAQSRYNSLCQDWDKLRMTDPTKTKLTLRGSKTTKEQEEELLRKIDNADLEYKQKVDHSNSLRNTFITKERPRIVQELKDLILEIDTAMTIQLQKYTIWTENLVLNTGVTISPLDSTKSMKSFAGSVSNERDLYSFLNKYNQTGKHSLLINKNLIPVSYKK

[4] = biological target: T4, Rgd1p F-BAR domain (residues 1-324) (Saccharomyces cerevisiae, UniProt P38339, R141D/K145E); assay: surface plasmon resonance; type: binding; conditions: 30 μM protein over 10% (mole/mole) PtdIns(4,5)P2 in DOPC
T4 sequence (P38339 1-324 R141D/K145E): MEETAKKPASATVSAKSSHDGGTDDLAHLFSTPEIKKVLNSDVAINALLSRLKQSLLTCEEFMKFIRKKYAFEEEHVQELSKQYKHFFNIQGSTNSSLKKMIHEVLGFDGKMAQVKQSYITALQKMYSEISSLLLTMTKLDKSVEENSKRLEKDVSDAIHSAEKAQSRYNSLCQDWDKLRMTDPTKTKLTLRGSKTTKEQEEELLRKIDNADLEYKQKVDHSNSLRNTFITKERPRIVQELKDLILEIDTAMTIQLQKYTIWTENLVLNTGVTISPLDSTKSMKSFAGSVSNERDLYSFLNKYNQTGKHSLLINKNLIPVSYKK

[5] = biological target: T5, Rgd1p F-BAR domain (residues 1-324) (Saccharomyces cerevisiae, UniProt P38339, R141D/K142E); assay: surface plasmon resonance; type: binding; conditions: 30 μM protein over 10% (mole/mole) PtdIns(4,5)P2 in DOPC
T5 sequence (P38339 1-324 R141D/K142E): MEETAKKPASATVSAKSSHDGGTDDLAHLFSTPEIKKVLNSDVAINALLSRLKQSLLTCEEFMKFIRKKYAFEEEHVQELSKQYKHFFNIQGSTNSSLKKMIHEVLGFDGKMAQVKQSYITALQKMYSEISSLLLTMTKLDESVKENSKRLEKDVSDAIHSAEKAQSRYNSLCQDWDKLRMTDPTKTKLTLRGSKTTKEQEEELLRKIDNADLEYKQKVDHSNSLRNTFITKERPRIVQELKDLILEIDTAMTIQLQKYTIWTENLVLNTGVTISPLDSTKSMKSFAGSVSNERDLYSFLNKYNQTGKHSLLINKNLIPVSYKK

AUC = biological target: the molecule itself; assay: AUC
crystal structure = biological target: the molecule itself; assay: crystal structure

With `O=P(O)(O)O[C@H]1[C@H](O)[C@@H](OP(=O)(O)O)[C@H](O)[C@@H](OP(=O)(O)O)[C@H]1O` [isolated headgroup of PtdIns(3,5)P2] the competition [1] was “isolated headgroups of these three phosphoinositides were equally potent in their ability to compete”.

For `O=P(O)(O)O[C@H]1[C@H](O)[C@@H](O)[C@H](OP(=O)(O)O)[C@@H](OP(=O)(O)O)[C@H]1O` [isolated headgroup of PtdIns(3,4)P2], the competition [1] was “isolated headgroups of these three phosphoinositides were equally potent in their ability to compete”.

For `CCCCCCCC/C=C\CCCCCCCC(=O)OC[C@H](COP(=O)(O)O[C@@H]1[C@H](O)[C@H](O)[C@@H](OP(=O)(O)O)[C@H](OP(=O)(O)O)[C@H]1O)OC(=O)CCCCCCC/C=C\CCCCCCCC` [dioleoyl-PtdIns(4,5)P2], the “binding relative to wild type” value [2] was “Glutamate substitutions at K149 and K153”, the “% reduction of binding vs wild type at 30 μM protein” value [3] was over 75% and the “binding relative to wild type” value [4] was “as seen for R141D/K142E and R141D/K145E doubly-mutated variants”. The “binding relative to wild type” value [5] was “as seen for R141D/K142E and R141D/K145E doubly-mutated variants”.

`O=P(O)(O)O[C@@H]1[C@H](O)[C@H](O)[C@@H](OP(=O)(O)O)[C@H](OP(=O)(O)O)[C@H]1O` [isolated headgroup of PtdIns(4,5)P2] was tested, and the competition [1] was “isolated headgroups of these three phosphoinositides were equally potent in their ability to compete”.

B1: Hof1p F-BAR domain (residues 1-300) (domain or fragment, S. cerevisiae, UniProt Q05080 1-300, looked up)
chain: MSYSYEACFWDPNDNGVNILLGHISQGIRSCDSMILFFKQRSELEKDYARRLGAITGKLDKDIGTNMDYGKLNETFNVVLSVEKARAQSHSKQSEILFRQIYTDTKAFAANLQARYTTLSGKIERLRMDKFNKKKGCEVLQKKLQDAQIRFRDLQLNENNMIGAKRVEHNKRELLKWESNSQEYKVQLDVLKQEYKASQKFWIHEWAQLSCELQEMENARISFLQSKLQQFATSSMETYILEQTKMDMLTNHLNSFTAADEISTFSKENGTGRLKHKTSKGDMNSSANWAQMSSISTTSK
modifications: selenomethionine (SeMet) in the protein used for the crystals
With B1 the Kd (AUC) was about 3000 nM and the “stoichiometry N” value (crystal structure) was 2.

B2: Rgd1p F-BAR domain (residues 24-333) (domain or fragment, S. cerevisiae, UniProt P38339 24-333, looked up)
chain: DDLAHLFSTPEIKKVLNSDVAINALLSRLKQSLLTCEEFMKFIRKKYAFEEEHVQELSKQYKHFFNIQGSTNSSLKKMIHEVLGFDGKMAQVKQSYITALQKMYSEISSLLLTMTKLRKSVKENSKRLEKDVSDAIHSAEKAQSRYNSLCQDWDKLRMTDPTKTKLTLRGSKTTKEQEEELLRKIDNADLEYKQKVDHSNSLRNTFITKERPRIVQELKDLILEIDTAMTIQLQKYTIWTENLVLNTGVTISPLDSTKSMKSFAGSVSNERDLYSFLNKYNQTGKHSLLINKNLIPVSYKKHPSMNHGQK
B2 was tested, and the “stoichiometry N” value (crystal structure) was 2.
